From paper PMC10710422, “Senescence-associated 13-HODE production promotes age-related liver steatosis by directly inhibiting catalase activity” (Nature Communications, 2023)

Experiments:
[1] = biological target: T1, Recombinant mouse catalase protein (CAT) (Mus musculus, UniProt P24270); experiment: surface plasmon resonance (Biacore T200), steady-state affinity; type: binding
T1 construct: commercial recombinant protein, immobilised on CM5 chip
T1 sequence (P24270 2-527): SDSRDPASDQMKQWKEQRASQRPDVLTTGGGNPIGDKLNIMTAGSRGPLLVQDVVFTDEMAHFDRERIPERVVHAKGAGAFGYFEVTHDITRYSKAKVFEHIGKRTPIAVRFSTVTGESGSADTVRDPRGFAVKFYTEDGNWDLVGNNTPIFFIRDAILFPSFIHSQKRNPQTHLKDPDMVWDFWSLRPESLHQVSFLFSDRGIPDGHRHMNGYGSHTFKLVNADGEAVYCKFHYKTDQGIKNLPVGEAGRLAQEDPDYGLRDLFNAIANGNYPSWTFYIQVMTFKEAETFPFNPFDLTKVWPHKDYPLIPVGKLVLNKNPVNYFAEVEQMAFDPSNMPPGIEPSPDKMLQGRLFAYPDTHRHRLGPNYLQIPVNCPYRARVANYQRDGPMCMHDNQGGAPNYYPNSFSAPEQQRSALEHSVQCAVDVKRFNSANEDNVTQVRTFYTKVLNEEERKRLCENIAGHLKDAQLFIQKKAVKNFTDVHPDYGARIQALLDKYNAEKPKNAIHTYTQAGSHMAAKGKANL

[2] = biological target: T2, recombinant human CAT protein (Homo sapiens, UniProt P04040); experiment: catalase activity kit; type: biochemical; details: 20 min preincubation with 1 μM 13-HODE, room temperature not stated
T2 construct: commercial recombinant protein
T2 sequence (P04040 2-527): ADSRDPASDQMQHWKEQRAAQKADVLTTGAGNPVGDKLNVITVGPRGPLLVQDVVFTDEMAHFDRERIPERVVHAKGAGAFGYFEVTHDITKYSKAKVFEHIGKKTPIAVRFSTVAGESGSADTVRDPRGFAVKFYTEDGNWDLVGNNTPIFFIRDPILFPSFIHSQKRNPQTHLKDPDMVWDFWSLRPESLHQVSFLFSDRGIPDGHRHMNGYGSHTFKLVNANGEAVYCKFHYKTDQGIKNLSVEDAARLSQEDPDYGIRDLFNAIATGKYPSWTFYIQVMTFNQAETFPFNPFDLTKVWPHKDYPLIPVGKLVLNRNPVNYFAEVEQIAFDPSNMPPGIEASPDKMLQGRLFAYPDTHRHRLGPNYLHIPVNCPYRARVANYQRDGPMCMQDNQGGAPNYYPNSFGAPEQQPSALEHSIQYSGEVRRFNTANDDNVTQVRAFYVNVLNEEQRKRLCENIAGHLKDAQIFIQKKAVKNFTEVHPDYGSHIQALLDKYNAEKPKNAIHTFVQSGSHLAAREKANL

[3] = biological target: the molecule itself; experiment: cross-linking; primary mouse hepatocytes treated with or without 1 uM 13-HODE for 6 h, then 100 uM DSS crosslinker for 1 h before protein extraction; western blot for CAT tetramer and monomer; monomer to tetramer

CCCCC[C@H](O)/C=C/C=C\CCCCCCCC(=O)O [13(S)-HODE]
Kd [1]: 2420 nM

CCCCCC(O)/C=C/C=C\CCCCCCCC(=O)O (stereo not drawn) [13-HODE]
CAT activity at 1 μM [2]: incubated recombinant CAT protein with 13-HODE and found that it inhibited CAT activity in vitro

B1: Catalase (CAT) (enzyme, UniProt P24270 1-527, looked up)
chain: MSDSRDPASDQMKQWKEQRASQRPDVLTTGGGNPIGDKLNIMTAGSRGPLLVQDVVFTDEMAHFDRERIPERVVHAKGAGAFGYFEVTHDITRYSKAKVFEHIGKRTPIAVRFSTVTGESGSADTVRDPRGFAVKFYTEDGNWDLVGNNTPIFFIRDAILFPSFIHSQKRNPQTHLKDPDMVWDFWSLRPESLHQVSFLFSDRGIPDGHRHMNGYGSHTFKLVNADGEAVYCKFHYKTDQGIKNLPVGEAGRLAQEDPDYGLRDLFNAIANGNYPSWTFYIQVMTFKEAETFPFNPFDLTKVWPHKDYPLIPVGKLVLNKNPVNYFAEVEQMAFDPSNMPPGIEPSPDKMLQGRLFAYPDTHRHRLGPNYLQIPVNCPYRARVANYQRDGPMCMHDNQGGAPNYYPNSFSAPEQQRSALEHSVQCAVDVKRFNSANEDNVTQVRTFYTKVLNEEERKRLCENIAGHLKDAQLFIQKKAVKNFTDVHPDYGARIQALLDKYNAEKPKNAIHTYTQAGSHMAAKGKANL
notes: Catalase, mouse, endogenous in primary hepatocytes of C57BL/6 mice; Detected by western blot as monomer and tetramer after DSS cross-linking; source: endogenous, primary mouse hepatocytes (cross-linked in cells before protein extraction)
stoichiometry N [3]: 4
